Reference: the NIST ThermoML archive (doi:10.1021/je060271a)
Numbers after ± are expanded uncertainties.

Details: 343.15 K, Liquid, Vibrating tube method

CCCCCC(=O)OCC(COC(=O)CCCCC)(COC(=O)CCCCC)COC(=O)CCCCC [pentaerythritol tetrahexanoate]
Details | mass density [kg/m3]
1134.6 kPa | 957.9 ± 1.2
1280.5 kPa | 958.2 ± 1.2
1295.1 kPa | 958.1 ± 1.2
1307.6 kPa | 958.1 ± 1.2
1320.1 kPa | 958.1 ± 1.2
1332.9 kPa | 958.2 ± 1.2
1348.2 kPa | 958.2 ± 1.2
1414.9 kPa | 958.2 ± 1.2
1428.2 kPa | 958.2 ± 1.2
1444 kPa | 958.2 ± 1.2
1457.4 kPa | 958.2 ± 1.2
1470.4 kPa | 958.2 ± 1.2
1483.5 kPa | 958.1 ± 1.2
1513.7 kPa | 958.3 ± 1.2
1557.9 kPa | 958.3 ± 1.2
1571.7 kPa | 958.3 ± 1.2
1588.7 kPa | 958.4 ± 1.2
1603.1 kPa | 958.4 ± 1.2
1617.5 kPa | 958.4 ± 1.2
1697.7 kPa | 958.3 ± 1.2
1713.1 kPa | 958.5 ± 1.2
1728.4 kPa | 958.5 ± 1.2
1747.5 kPa | 958.3 ± 1.2
1763.5 kPa | 958.4 ± 1.2
1779.3 kPa | 958.3 ± 1.2
1795.9 kPa | 958.4 ± 1.2
1815 kPa | 958.5 ± 1.2
1831.3 kPa | 958.5 ± 1.2
1848.3 kPa | 958.5 ± 1.2
1865 kPa | 958.4 ± 1.2
1884.9 kPa | 958.5 ± 1.2
1902.5 kPa | 958.6 ± 1.2
1920.5 kPa | 958.6 ± 1.2
1937.8 kPa | 958.6 ± 1.2
1958.6 kPa | 958.5 ± 1.2
1976.1 kPa | 958.6 ± 1.2
1993.6 kPa | 958.7 ± 1.2
2012 kPa | 958.6 ± 1.2
2033.4 kPa | 958.6 ± 1.2
2051.6 kPa | 958.6 ± 1.2
2070.2 kPa | 958.9 ± 1.2
2092.2 kPa | 958.6 ± 1.2
2363.6 kPa | 958.8 ± 1.2
2384.2 kPa | 958.9 ± 1.2
2409 kPa | 959 ± 1.2
2429.7 kPa | 959 ± 1.2
2451.3 kPa | 959 ± 1.2
2477.2 kPa | 959.1 ± 1.2
2710.1 kPa | 959.1 ± 1.2
2733 kPa | 959.1 ± 1.2
2756.2 kPa | 959.1 ± 1.2
2778.8 kPa | 959.3 ± 1.2
2805.7 kPa | 959.1 ± 1.2
2828.2 kPa | 959.3 ± 1.2
2850.2 kPa | 959.4 ± 1.2
2877.4 kPa | 959.2 ± 1.2
2900.2 kPa | 959.2 ± 1.2
2971.9 kPa | 959.4 ± 1.2
2994.1 kPa | 959.4 ± 1.2
3021 kPa | 959.5 ± 1.2
3043.4 kPa | 959.5 ± 1.2
3066.1 kPa | 959.4 ± 1.2
3093.1 kPa | 959.5 ± 1.2
3115.3 kPa | 959.5 ± 1.2
3138.2 kPa | 959.4 ± 1.2
3165.6 kPa | 959.5 ± 1.2
3188.6 kPa | 959.5 ± 1.2
3212 kPa | 959.6 ± 1.2
3235.3 kPa | 959.5 ± 1.2
3263.5 kPa | 959.6 ± 1.2
3286.6 kPa | 959.7 ± 1.2
3314.6 kPa | 959.6 ± 1.2
3338.4 kPa | 959.7 ± 1.2
3362.1 kPa | 959.6 ± 1.2
3386.4 kPa | 959.6 ± 1.2
3410.3 kPa | 959.6 ± 1.2
3439.1 kPa | 959.8 ± 1.2
3463 kPa | 959.8 ± 1.2
3486.9 kPa | 959.8 ± 1.2
3514.8 kPa | 959.7 ± 1.2
3538.6 kPa | 959.8 ± 1.2
3563 kPa | 959.8 ± 1.2
3592.3 kPa | 959.9 ± 1.2
3616.2 kPa | 960 ± 1.2
3640.6 kPa | 959.9 ± 1.2
3665.4 kPa | 959.8 ± 1.2
3695 kPa | 959.9 ± 1.2
3719.3 kPa | 959.8 ± 1.2
3743.2 kPa | 960 ± 1.2
3768 kPa | 960 ± 1.2
3796.7 kPa | 960 ± 1.2
3821.2 kPa | 960 ± 1.2
4008.1 kPa | 960.2 ± 1.2
4035.6 kPa | 960.1 ± 1.2
4062.6 kPa | 960.2 ± 1.2
4089.1 kPa | 960.2 ± 1.2
4120.6 kPa | 960.3 ± 1.2
4147.6 kPa | 960.4 ± 1.2
4174.5 kPa | 960.3 ± 1.2
4201.5 kPa | 960.3 ± 1.2
4234.2 kPa | 960.2 ± 1.2
4261.2 kPa | 960.4 ± 1.2
4288.4 kPa | 960.4 ± 1.2
4316.6 kPa | 960.4 ± 1.2
4350.4 kPa | 960.4 ± 1.2
4378.3 kPa | 960.5 ± 1.2
4414.7 kPa | 960.4 ± 1.2
4437.5 kPa | 960.5 ± 1.2
4465.6 kPa | 960.6 ± 1.2
4499.5 kPa | 960.5 ± 1.2
4528.1 kPa | 960.6 ± 1.2
4557.2 kPa | 960.6 ± 1.2
4592.3 kPa | 960.7 ± 1.2
4621.6 kPa | 960.6 ± 1.2
4656.7 kPa | 960.6 ± 1.2
4686.5 kPa | 960.7 ± 1.2
4715.9 kPa | 960.6 ± 1.2
4751.9 kPa | 960.8 ± 1.2
4781.7 kPa | 960.8 ± 1.2
4812.3 kPa | 960.7 ± 1.2
4843.3 kPa | 960.8 ± 1.2
4880.7 kPa | 960.9 ± 1.2
4911.1 kPa | 960.8 ± 1.2
4942.3 kPa | 961 ± 1.2
4973.8 kPa | 960.9 ± 1.2
5010.3 kPa | 960.9 ± 1.2
5041.6 kPa | 960.9 ± 1.2
5073.3 kPa | 961 ± 1.2
5110.1 kPa | 961 ± 1.2
5141.5 kPa | 960.9 ± 1.2
5173.8 kPa | 961 ± 1.2
5212.2 kPa | 961.1 ± 1.2
5245.4 kPa | 961.1 ± 1.2
5277.4 kPa | 961.2 ± 1.2
5309.8 kPa | 961.2 ± 1.2
5348.9 kPa | 961.2 ± 1.2
5381.6 kPa | 961.3 ± 1.2
5415.2 kPa | 961.3 ± 1.2
5454.8 kPa | 961.2 ± 1.2
5488.1 kPa | 961.3 ± 1.2
5521.5 kPa | 961.3 ± 1.2
5555.1 kPa | 961.3 ± 1.2
5594.9 kPa | 961.4 ± 1.2
5627.9 kPa | 961.3 ± 1.2
5662.1 kPa | 961.3 ± 1.2
